One data set concerns human α-synuclein. The data set is described as follows: Masliah D-line α-synuclein transgenic mouse, α-synuclein immunoreactivity and ELISA. As to conditions: 0.09 mg/kg, second trial (FIG. 2B). The format is in vivo. (In general: In an ELISA, binding on a coated surface is turned into a signal by an enzyme label.)
Another data set deals with TAU. The data set is described as follows: TAU441 transgenic mice, TAU immunoreactivity (AT180, HT7) in amygdala. The format is in vivo, mouse. As to conditions: 0.09 mg/kg once every 24 hours, three months, vs vehicle. On the procedure: Animals and treatments: Male and female human WT alpha-synuclein over-expressing transgenic mice^32 at 6 months of age were given vehicle (10% beta-cyclodextrin) or LNK-754-TS (0.09, 0.9 and 9 mg/kg) per oral gavage twice daily for 3 months or animals at 7 months of age were given vehicle (2.5% beta-cyclodextrin) or LNK-754-TS (2 mg/kg) once every three days for 3 months. […]
Immunohistochemistry and quantification of stained cells: For evaluation of α-synuclein immunoreactivity (IR), 5 sagittal cryo-cut sections (10 μm slice thickness) from five different layers were used for counting of IR cells in the cortex and hippocampus. […] IR positive cells were quantified using specialized image analysis software (Image Pro Plus, version 4.5.1.29). […] Images were evaluated with ImageProPlus (version 6.2) image analysis software. […] Primary antibodies were detected by the ABC method.
This study was designed to evaluate the effects of a treatment with LNK-754-TS dosed at 0.09 mg per kg on behavior, TAU and TAU-pT231 levels, and brain morphology of TAU441 Tg mice. Histological evaluations were performed to quantitatively evaluate TAU pathology. TAU depositions were determined using the monoclonal TAU-antibodies AT180 and HT7. […] Afterwards images were evaluated with ImageProPlus (version 6.2) image analysis software (FIG. 10A).

The nature of data set [1]: 3T3H-ras (61 L) xenograft tumor-bearing athymic mouse, continuous infusion 7 days, PK/PD. To be noted: intravenous, calculated from minimal continuous serum level of 100 ng/ml, read-out: minimal efficacious AUC. The format is in vivo. The text has this: FIG. 3 provides pharmacokinetic and pharmacodynamic data for continuously infused LNK-754 (CP-609,754) in a 3T3H-ras (61 L) xenograft tumor-bearing athymic mouse (7 day treatment). […] From Pfizer Investigational New Drug Application for CP-609,754, Section 8, Pharmacology and Toxicology, dated Nov. 19, 1999. See also Moulder et al., Clinical Cancer Research 10:7127-7135, Nov. 1, 2004.
Further data supporting the stark difference in dosing levels for efficacy in oncology and synucleinopathies is shown in FIG. 3 and Table 2A below. In the experiment shown in FIG. 3, a xenograft model is once again used, but there is continuous infusion of LNK-754-TS, and thus a steady state concentration of drug in the plasma and tissues.
(§1) In the experimental data represented in Table 2A, a different method of drug delivery is used (oral) than in the experiment represented in FIG. 3. The best way to compare the relative coverage of the two delivery methods (oral and continuous infusion) is by comparing area-under-the-curve (AUC) values. We can compare the calculated AUC values for the continuous infusion oncology study presented in FIG. 3 and the AUC values associated with the synuclein model doses in the table. […] The AUCs of orally dosed LNK-754-TS at 0.9 mg/kg and at 0.09 mg/kg QD are 34.6 and […], respectively.

Data set [2] in a line: Pharmacokinetics of LNK-754-TS in mice, oral. The format is in vivo, mouse. As to conditions: for MRT inf: read-out: MRT(0-∞).
From the text: as §1
The pharmacokinetic profiles of LNK-754-TS and Zarnestra® were analyzed using methods known in the art. The results are shown in FIGS. 13-14 and the tables below.

Setting [3] is: C57BL/6, mouse, in vivo, po, 9 mg/kg, Group 5 (9 mg/kg SID), C57BL/6 mice, oral.
Setting [4] is: C57BL/6, mouse, in vivo, po, 9 mg/kg, Group 6 (9 mg/kg BID), C57BL/6 mice, oral.
Where [5] appears, read: C57BL/6, mouse, in vivo, po, 9 mg/kg, Group 9 (9 mg/kg Day 5), C57BL/6 mice, oral.

In general, AUC refers to concentration integrated over time. A word on the Cmax: it is the highest concentration seen after dosing. What is called AUC(0-inf) is total exposure, with the tail of the curve extrapolated. A lower AUC(0-inf) goes with low exposure. Broadly, the AUC(0-t) is exposure summed from dosing to a finite time, without extrapolation to infinity. The low end stands for less exposure, the high end for more exposure. One may read the half-life as the time needed for the level to fall by half in the phase considered. As usually defined, the Tmax is the time at which the peak concentration occurs.

Entries after “also recorded” stand apart in the source; their conditions may differ. Read-outs that look alike come from different tables or passages of the source.

For the compound `C#Cc1cccc(-c2cc(=O)n(C)c3ccc([C@](O)(c4ccc(Cl)cc4)c4cncn4C)cc23)c1` [LNK-754, (R)-6-[(4-chlorophenyl)-hydroxyl-(1-methyl-1-H-imidazol-5-yl)-methyl]-4-(3-ethynylphenyl)-1-methyl-2-(1H)-quinonlinone], the “number of α-synuclein positive neurons” value in the data set with human α-synuclein is recorded as “significantly lowered”.

As for `C#Cc1cccc(-c2cc(=O)n(C)c3ccc([C@](O)(c4ccc(Cl)cc4)c4cncn4C)cc23)c1` [LNK-754-TS, (R)-6-[(4-chlorophenyl)-hydroxyl-(1-methyl-1-H-imidazol-5-yl)-methyl]-4-(3-ethynylphenyl)-1-methyl-2-(1H)-quinonlinone (2S, 3S)-dihydroxybutanedioate], the “phosphorylated Tau (AT180) immunoreactivity in amygdala” value with TAU is reported as “significantly decreased; also recorded: significant reduction; also recorded: significantly reduced”. Besides, the “total TAU (HT7) immunoreactivity” value in the data set with TAU is reported as “not significantly reduced; also recorded: did not change”. Moreover, the area under the curve (AUC) in data set [1] is about 2400 ng·h/mL; in data set [2] (0.9 mg/kg oral, QD day 1, 5% beta-cyclodextrin, mice), 34.6 ng·h/mL; in data set [2] (C57BL/6, mouse, in vivo, po, 0.09 mg/kg, 0.09 mg/kg oral, QD day 1, 5% beta-cyclodextrin, mice, read-out: AUC), 0.63 ng·h/mL; in data set [2] (C57BL/6, mouse, in vivo, po, 0.9 mg/kg, 0.9 mg/kg oral, QD day 1, 5% beta-cyclodextrin, mice, read-out: AUC), 34.6 ng·h/mL; in data set [2] (C57BL/6, mouse, in vivo, po, 9 mg/kg, 9 mg/kg BID oral, mice (text summary of day 1 and day 5), read-out: AUC) it was 2000 to 2600 ng·h/mL; in data set [2] (C57BL/6, mouse, in vivo, po, 9 mg/kg, 9 mg/kg oral, BID day 1, 20% beta-cyclodextrin, mice, read-out: AUC), 2100 ng·h/mL. Besides, in data set [2] (C57BL/6, mouse, in vivo, po, 9 mg/kg, 9 mg/kg oral, BID day 5, 20% beta-cyclodextrin, mice, read-out: AUC), the AUC came to 2630 ng·h/mL. In addition, the Cmax in data set [2] (C57BL/6, mouse, in vivo, po, 0.09 mg/kg, 0.09 mg/kg oral, QD day 1, 5% beta-cyclodextrin, mice) stood at 0.61 ng/mL; in data set [2] (C57BL/6, mouse, in vivo, po, 0.9 mg/kg, 0.9 mg/kg oral, QD day 1, 5% beta-cyclodextrin, mice), 31.1 ng/mL; in data set [2] (C57BL/6, mouse, in vivo, po, 9 mg/kg, 9 mg/kg oral, BID day 1, 20% beta-cyclodextrin, mice), 1380 ng/mL; in data set [2] (C57BL/6, mouse, in vivo, po, 9 mg/kg, 9 mg/kg oral, BID day 5, 20% beta-cyclodextrin, mice), 1480 ng/mL; in data set [2] (setting [3]) it was 318 ng/mL; in data set [2] (setting [4]) it was 1390 ng/mL. For the same compound, in data set [2] (setting [5]), the Cmax was found to be 1490 ng/mL. Besides, the results for the AUC(0-inf) in data set [2] (setting [3]), in data set [2] (setting [4]) and in data set [2] (setting [5]) were 752 ng·h/mL, 2290 ng·h/mL and 2630 ng·h/mL, respectively. Also, the values for the AUC(0-t) in data set [2] (setting [3]), in data set [2] (setting [4]) and in data set [2] (setting [5]) were 730 ng·h/mL, 2100 ng·h/mL and 2630 ng·h/mL, respectively. The half-life in data set [2] (setting [3]) was 1.5 h; in data set [2] (setting [4]), 5.04 h; in data set [2] (setting [5]), 0.62 h. The MRT inf in data set [2] (setting [3]) came to 2.38 h; in data set [2] (setting [4]), 2.67 h; in data set [2] (setting [5]), 1.43 h. Moreover, the Tmax stood at 0.5 h in data set [2] (C57BL/6, mouse, in vivo, 0.09 mg/kg oral, QD day 1, 5% beta-cyclodextrin, mice); 0.5 h in data set [2] (C57BL/6, mouse, in vivo, 0.9 mg/kg oral, QD day 1, 5% beta-cyclodextrin, mice); 1 h in data set [2] (C57BL/6, mouse, in vivo, 9 mg/kg oral, BID day 1, 20% beta-cyclodextrin, mice); 1 h in data set [2] (Group 5 (9 mg/kg SID), C57BL/6 mice, oral); 1 h in data set [2] (Group 6 (9 mg/kg BID), C57BL/6 mice, oral); 1 h in data set [2] (Group 9 (9 mg/kg Day 5), C57BL/6 mice, oral).

The record behind these values is patent US20100331363A1, “TREATMENT OF MITOCHONDRIAL DISORDERS USING A FARNESYL TRANSFERASE INHIBITOR” (Link Medicine Corporation, priority 2008, published 2010).
